Results as given in patent US10421769B2, “Anticancer property studies of chiral palladium N-heterocyclic carbene complexes and process for preparation thereof” (Indian Institute of Technology Bombay, priority 2017, dated 2019).
“Also recorded” adds a separate entry of the source. Like-named read-outs stand apart in the source and are kept apart here.

Key:
p53 in MCF-7 cells = experiment: Immunostaining for nuclear accumulation of p53; assay type: cell-based, human; conditions: MCF-7, 4 and 8 μM, 36 h
Experimental: (§1) Experiment: MCF-7 (5×10^4 cells/well) cells were seeded on glass cover slip in a 24-well cell culture plate. After the cells were attached, they were incubated with 4 and 8 μM (1R,2R,5S)-1c for 36 h, fixed with 3.7% formaldehyde and processed for immunostaining. After fixing, cells were blocked with 2% BSA and incubated with anti-p53 IgG (1:300) and anti-p21 IgG (1:300) for 2 h at 37° C. Primary antibody incubation was followed by Alexa Fluor 568-conjugated sheep anti-mouse secondary IgG (1:400) incubation for 1 h at 37° C. Hoechst 33258 was used to stain the DNA. Immunofluorescence images were captured using Eclipse TE 2000U microscope (Nikon, Tokyo, Japan) at 40× magnification and processed by Image-Pro Plus software (Media Cybernetics, Silver Spring, Md.). To determine the percentage of cells with nuclear accumulation of p53 and p21, 1000 cells were scored in each case. The experiment was repeated thrice.

p21 in MCF-7 cells = experiment: Immunostaining for nuclear accumulation of p21; assay type: cell-based, human; conditions: MCF-7, 4 and 8 μM, 36 h
Experimental: as §1

B16-F10 cells = experiment: Sulforhodamine B assay, B16-F10 skin cancer cells; assay type: cell-based, mouse; conditions: SRB
Experimental: (§2) The present invention further provides a Sulforhodamine B assay method for investigating the anti-cancer efficacies of the compounds of the present Pd—NHC series on MCF-7, HeLa, A549, B16-F10 and EMT6/AR1 cancer cell lines and also for a comparative study on normal skin cell line L929 and normal epithelial breast cells MCF10A. The said Sulforhodamine B assay is conducted as per reported method (Skehan et al., J. Natl. Cancer Inst. 1990, 82, 1107).

A549 cells = experiment: Sulforhodamine B assay, A549 lung cancer cells; assay type: cell-based, human; conditions: SRB
Experimental: as §2

MCF-7 cells [1] = experiment: Live dead assay by flow cytometry using propidium iodide; assay type: cell-based, human; conditions: for Dead % / Live %: 48 h
Experimental: MCF-7 cells (5 mL) were seeded in 60 mm cell culture dishes at a density of 1.5×10^5 cells/mL. Cells were incubated with 4 and 8 μM (1R,2R,5S)-1c for 48 h for live dead assay. After the required incubation, cells were processed and analyzed by flow cytometry. Percentage of live and dead MCF-7 cells in the absence and presence of 4 and 8 μM (1R,2R,5S)-1c and 4 μM cisplatin was determined by flow cytometry using propidium iodide (PI).

MCF10A cells = experiment: Sulforhodamine B assay, normal epithelial breast cells MCF10A (selectivity); assay type: cell-based; conditions: MCF10A IC50 against MCF-7 IC50
Experimental: as §2

PARP-1 in MCF-7 cells = experiment: Western blot analysis for PARP cleavage; assay type: cell-based, human; conditions: MCF-7, 4 and 8 μM, 48 h; cisplatin 4 μM as comparison
Experimental: Experiment: MCF-7 cells (5 mL) were seeded at a density of 1.5×10^5 cells/mL in 60 mm cell culture dishes. After cell attachment, they were incubated with 4 and 8 μM (1R,2R,5S)-1c and 4 μM cisplatin for 48 h. The cells were then processed and the whole cell lysate was isolated. An equal amount of total protein was resolved on SDS-PAGE and electroblotted onto a PVDF membrane (Millipore). Immunoblotting was performed using specific antibodies against PARP-1 and β-actin. The blots were developed by chemiluminescence using HRP conjugated secondary IgG.

MCF-7 cells [2] = experiment: Sulforhodamine B assay, proliferation of MCF-7 cells; assay type: cell-based, human; conditions: for IC50: MCF-7 breast cancer cells, one cell cycle (48 h), SRB
Experimental: as §2
Experiment: The anti-proliferative activity of the present palladium N-heterocyclic carbene complexes on two different cancer cell lines MCF-7 and HeLa is tested using Sulforhodamine B assay to reveal their anti-tumor properties. The evaluation of growth inhibition of these complexes is done from their IC50 values for the inhibition of cell growth. The IC50 values are compared with Cisplatin to determine any increase in efficacy.
Method: The effects of present series of palladium N-heterocyclic carbene complexes, such as compounds (1S,2S,5R)-(1-3)b and (1R,2R,5S)-(1-3)b; (1S,2S,5R)-(1, 3)c and (1R,2R,5S)-(1, 3)c on the proliferation of MCF-7 cells after one cell cycle are determined by Sulforhodamine B assay. In particular, 1×10^5 cells/mL are seeded in each well in 96-well plates for 24 h and then incubated without or with different concentrations of these complexes at 37° C. for one cell cycle (48 h). After incubation of cells with the complexes for one cell cycle, cell growth is stopped by the addition of 50% trichloroacetic acid and stained with 0.4% sulforhodamine B dissolved in 1% acetic acid. Unbound dye is removed by washing with 1% acetic acid, and the protein content is determined by measuring absorbance at 520 nm in a Bio-Rad model 680 microplate reader after extracting with 10 mM tris base. IC50 value is calculated as the concentration of the complex that inhibited the proliferation of cells by 50% relative to the untreated control cells. The anticancer activities of the present Pd—NHC compounds are graphically represented in accompanying FIG. 1.
The data obtained is graphically represented in accompanying FIG. 2.

MCF-7 cells [3] = experiment: Cell cycle analysis by flow cytometry (PI); assay type: cell-based, human; conditions: 36 h
Experimental: (§3) Experiment: MCF-7 cells (5 mL) were seeded in 60 mm cell culture dishes at a density of 1.5×10^5 cells/mL. The cells were incubated with 2 and 4 μM (1R,2R,5S)-1c for 36 h for cell cycle analysis. After the required incubation, cells were processed and analyzed by flow cytometry. Cell cycle data was analyzed using Flow Jo software. Cell cycle analysis and mitotic indices of MCF-7 cells in the absence and presence 2 and 4 μM (1R,2R,5S)-1c. Cell cycle analysis was done using flow cytometer after incubating the cells with PI. The data was analyzed using Flow Jo software. Data were average of three independent set of experiments with S.D (±). Mitotic index (percentage of cells in mitosis) was calculated based on DNA morphology of cells stained with Hoechst 33258. Data were average of three independent set of experiments with S.D (±). 1000 cells were scored in each set.

MCF-7 cells [4] = experiment: Mitotic index from DNA morphology (Hoechst 33258); assay type: cell-based, human
Experimental: as §3

L929 cells = experiment: Sulforhodamine B assay, normal skin cells L929 (selectivity); assay type: cell-based; conditions: L929 IC50 against B16-F10 IC50
Experimental: as §2

## trans-[1-(1R)-menthyl-4-(ethyl)-1,2,4-triazol-5-ylidene]2Pd(OCOCF3)2 [(1R,2R,5S)-1c]
p53 in MCF-7 cells
  Nuclear accumulation of p53 (in words): leads to the nuclear accumulation of p53
p21 in MCF-7 cells
  Nuclear accumulation of p21 (in words): nuclear accumulation of p21; also recorded: transcriptionally activates p21
B16-F10 cells
  IC50: 1.3 ± 0.4 µM
A549 cells
  IC50: 5.7 ± 1.6 µM
MCF-7 cells [1]; MCF-7
  Cell death (in words): leads to cell death in MCF-7 cells
MCF-7 cells [1]; MCF-7, 4 μM
  Dead %: 41 ± 2%
  Live %: 59 ± 2%
MCF-7 cells [1]; MCF-7, 8 μM
  Dead %: 90 ± 1%
  Live %: 10 ± 1%
MCF10A cells
  times more selective towards the cancer cells (MCF-7 vs MCF10A): around 16 times
PARP-1 in MCF-7 cells
  PARP cleavage (in words): more pronounced than cisplatin; also recorded: cleaves PARP in MCF-7 cells
MCF-7 cells [2]; MCF-7
  IC50 of Cisplatin against MCF-7 as multiple of IC50 of the complex: 27 times
MCF-7 cells [2]; read-out: IC50 (μM), MCF-7
  IC50: 0.55 ± 0.02 µM
MCF-7 cells [2]; unit nM printed in cell or sentence, read-out: IC50, MCF-7 (values given in nM)
  IC50: 0.55 ± 0.02 µM
MCF-7 cells [3]; MCF-7, 2 μM
  % of cells in different phases of cell cycle: G1: 30 ± 2%
  % of cells in different phases of cell cycle: G2/M: 35 ± 2%
  % of cells in different phases of cell cycle: S: 31 ± 2%
MCF-7 cells [3]; MCF-7, 4 μM
  % of cells in different phases of cell cycle: G1: 18 ± 2%
  % of cells in different phases of cell cycle: G2/M: 50 ± 2%
  % of cells in different phases of cell cycle: S: 32 ± 3%
MCF-7 cells [3]; MCF-7, 2 and 4 μM
  Cell cycle block (in words): blocks MCF-7 cells at the G2 phase; also recorded: blocked cells at the G2/M phase
MCF-7 cells [4]; MCF-7, 2 μM
  Mitotic Index (percentage of cells in mitosis): 3 ± 1%
MCF-7 cells [4]; MCF-7, 4 μM
  Mitotic Index (percentage of cells in mitosis): 3.2 ± 1%
MCF-7 cells [4]; MCF-7, Hoechst 33258 DNA morphology
  Arrest at mitosis (in words): did not arrest cells at mitosis
L929 cells
  times more selective towards the cancer cells (B16-F10 vs L929): around 8.1 times
